Test results published in ChEMBL document CHEMBL1201862, “PubChem BioAssay data set” (2004).
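Results reflect a 48-hour exposure of cells in 96-well plates to compound at five concentrations. GI50 marks 50% less growth.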 Activity calls are given as the source filed them. Rule as the data show it: active = GI50 up to about 1.1 µM and inactive = higher.

What was measured:
Assay in all cases: inhibition of tumour cell growth, NCI panel, 48 h
[1] = test system: A498
[2] = test system: DU-145
[3] = test system: HCT-116
[4] = test system: HT-29
[5] = test system: M14
[6] = test system: Malme-3M
[7] = test system: NCI-H522
[8] = test system: NCI/ADR-RES
[9] = test system: OVCAR-3
[10] = test system: OVCAR-4
[11] = test system: OVCAR-5
[12] = test system: PC-3
[13] = test system: RPMI-8226
[14] = test system: SF-295
[15] = test system: SK-MEL-28
[16] = test system: SK-MEL-5
[17] = test system: TK-10
[18] = test system: UACC-62
[19] = test system: SNB-75
[20] = test system: RXF 393

| Structure (SMILES) | GI50 [1] | GI50 [2] | GI50 [3] | GI50 [4] | GI50 [5] | GI50 [6] | GI50 [7] | GI50 [8] | GI50 [9] | GI50 [10] | GI50 [11] | GI50 [12] | GI50 [13] | GI50 [14] | GI50 [15] | GI50 [16] | GI50 [17] | GI50 [18] | GI50 [19] | GI50 [20] |
| --- | --- | --- | --- | --- | --- | --- | --- | --- | --- | --- | --- | --- | --- | --- | --- | --- | --- | --- | --- | --- |
| Nc1nc(O)c2c(n1)NCN(CCCN1CCOCC1)C2 | > 100 µM (inactive) | > 100 µM (inactive) | > 100 µM (inactive) | > 100 µM (inactive) | > 100 µM (inactive) | > 100 µM (inactive) | > 100 µM (inactive) | > 100 µM (inactive) | 55.3 µM (inactive) | > 100 µM (inactive) | > 100 µM (inactive) | > 100 µM (inactive) | > 100 µM (inactive) | > 100 µM (inactive) | > 100 µM (inactive) | > 100 µM (inactive) | > 100 µM (inactive) | > 100 µM (inactive) | – | – |
| CCOC(=O)C1=CNC2=N[C@H]3CCCC[C@@H]3N2C1=O | > 100 µM (inactive) | > 100 µM (inactive) | > 100 µM (inactive) | > 100 µM (inactive) | > 100 µM (inactive) | > 100 µM (inactive) | > 100 µM (inactive) | > 100 µM (inactive) | > 100 µM (inactive) | > 100 µM (inactive) | > 100 µM (inactive) | > 100 µM (inactive) | > 100 µM (inactive) | > 100 µM (inactive) | > 100 µM (inactive) | > 100 µM (inactive) | – | > 100 µM (inactive) | > 100 µM (inactive) | – |
| CC1CN=C(N(C)C(=O)Nc2ccc(Cl)c(Cl)c2)S1 (stereo not drawn) | 48.4 µM (inactive) | 44.8 µM (inactive) | 39 µM (inactive) | 33 µM (inactive) | 0.127 µM (active) | 46.5 µM (inactive) | – | 14.4 µM (inactive) | 20.5 µM (inactive) | 36.6 µM (inactive) | 15.2 µM (inactive) | 27.4 µM (inactive) | 31.7 µM (inactive) | 30.9 µM (inactive) | 16.6 µM (inactive) | 15.7 µM (inactive) | 26.8 µM (inactive) | – | 19.1 µM (inactive) | – |
| CCN(CC)c1ccc2cc(-c3nnc(-c4ccccc4O)o3)c(=O)oc2c1 | 13 µM (inactive) | 10.3 µM (inactive) | 5.97 µM (inactive) | 11.7 µM (inactive) | 11.1 µM (inactive) | 14.9 µM (inactive) | 5.43 µM (inactive) | 10.5 µM (inactive) | 5.97 µM (inactive) | 6.35 µM (inactive) | 16.2 µM (inactive) | 10.3 µM (inactive) | 14.6 µM (inactive) | 11.1 µM (inactive) | 11.7 µM (inactive) | 6.93 µM (inactive) | – | 10.6 µM (inactive) | – | – |
| NC(=S)Nc1nc(=S)[nH]c2[nH]ccc12 | > 100 µM (inactive) | > 100 µM (inactive) | 90.8 µM (inactive) | 99.5 µM (inactive) | > 100 µM (inactive) | – | – | > 100 µM (inactive) | 29.7 µM (inactive) | – | > 100 µM (inactive) | 74.3 µM (inactive) | 25.9 µM (inactive) | 65.5 µM (inactive) | > 100 µM (inactive) | 15.3 µM (inactive) | 94.8 µM (inactive) | 91 µM (inactive) | < 0.01 µM (active) | – |
| CN(N=O)C(=N)NC(=O)c1ccccc1 | > 100 µM (inactive) | – | 67.6 µM (inactive) | > 100 µM (inactive) | > 100 µM (inactive) | > 100 µM (inactive) | > 100 µM (inactive) | > 100 µM (inactive) | > 100 µM (inactive) | > 100 µM (inactive) | > 100 µM (inactive) | > 100 µM (inactive) | > 100 µM (inactive) | > 100 µM (inactive) | – | 45.4 µM (inactive) | > 100 µM (inactive) | 56.5 µM (inactive) | 51.5 µM (inactive) | > 100 µM (inactive) |
| CC(C)(C)OC(=O)NC(Cc1ccc(OC(C)(C)C)cc1)C(=O)N[C@H]1CC[C@H](C(=O)O)C1 (stereo partly drawn) | > 100 µM (inactive) | > 100 µM (inactive) | > 100 µM (inactive) | > 100 µM (inactive) | > 100 µM (inactive) | – | > 100 µM (inactive) | > 100 µM (inactive) | – | – | > 100 µM (inactive) | 89.1 µM (inactive) | > 100 µM (inactive) | > 100 µM (inactive) | > 100 µM (inactive) | > 100 µM (inactive) | > 100 µM (inactive) | – | > 100 µM (inactive) | – |
| CCOP(=O)(Cc1nc(C#N)c(N)o1)OCC | > 100 µM (inactive) | > 100 µM (inactive) | > 100 µM (inactive) | > 100 µM (inactive) | – | > 100 µM (inactive) | > 100 µM (inactive) | – | > 100 µM (inactive) | > 100 µM (inactive) | > 100 µM (inactive) | > 100 µM (inactive) | > 100 µM (inactive) | > 100 µM (inactive) | > 100 µM (inactive) | > 100 µM (inactive) | > 100 µM (inactive) | > 100 µM (inactive) | – | > 100 µM (inactive) |
| CCOP(=O)(OCC)/C(C#N)=C\c1ccc(OC(C)=O)cc1 | > 100 µM (inactive) | > 100 µM (inactive) | > 100 µM (inactive) | > 100 µM (inactive) | > 100 µM (inactive) | > 100 µM (inactive) | > 80.2 µM (inactive) | – | > 100 µM (inactive) | > 100 µM (inactive) | > 100 µM (inactive) | – | > 100 µM (inactive) | > 100 µM (inactive) | > 100 µM (inactive) | > 100 µM (inactive) | > 100 µM (inactive) | > 100 µM (inactive) | > 78.5 µM (inactive) | > 100 µM (inactive) |
| O=C(c1cc(Cl)ccc1Cl)N1CCN(c2cccc(Cl)c2)CC1 | 12.7 µM (inactive) | 31.5 µM (inactive) | 11.4 µM (inactive) | 12.4 µM (inactive) | 22.2 µM (inactive) | 11.1 µM (inactive) | 10.6 µM (inactive) | – | 14.5 µM (inactive) | 33 µM (inactive) | 26.4 µM (inactive) | 2.08 µM (inactive) | 22.3 µM (inactive) | 7.55 µM (inactive) | 15.6 µM (inactive) | 6.59 µM (inactive) | 49.5 µM (inactive) | – | 13.9 µM (inactive) | 11.1 µM (inactive) |
| COc1cc(/C=C/C(=O)CC(=O)/C=C/c2cc(C)c(O)c(OC)c2)cc(C)c1O | > 100 µM (inactive) | > 100 µM (inactive) | 58.3 µM (inactive) | > 100 µM (inactive) | > 100 µM (inactive) | > 100 µM (inactive) | > 100 µM (inactive) | > 100 µM (inactive) | 83.4 µM (inactive) | > 100 µM (inactive) | > 100 µM (inactive) | > 100 µM (inactive) | 37.6 µM (inactive) | > 100 µM (inactive) | > 100 µM (inactive) | > 100 µM (inactive) | – | > 100 µM (inactive) | > 100 µM (inactive) | – |
| C[C@]12CC[C@@H]3c4ccc(OS(N)(=O)=O)cc4CC[C@H]3[C@@H]1CCC2=O [EMATE] | 97.1 µM (inactive) | 42.7 µM (inactive) | 30.2 µM (inactive) | 30.1 µM (inactive) | 38.9 µM (inactive) | 45.6 µM (inactive) | – | 26.6 µM (inactive) | 64 µM (inactive) | 57.7 µM (inactive) | > 100 µM (inactive) | – | 31.1 µM (inactive) | 36.4 µM (inactive) | 95.1 µM (inactive) | 13.5 µM (inactive) | 59.6 µM (inactive) | 37.6 µM (inactive) | 42.4 µM (inactive) | 63.4 µM (inactive) |
